Where a SMILES comes first, the peptide text is derived from it.
Molecular target: D(2) dopamine receptor (Bos taurus) (UniProt P20288)
Experiment: Compound was evaluated for its ability to enhance the binding of the dopamine receptor agonist [3H]pramipexole to Dopamine receptor D2 at a concentration of 10E-9 M

Sequence of D(2) dopamine receptor (Bos taurus) (P20288 whole entry): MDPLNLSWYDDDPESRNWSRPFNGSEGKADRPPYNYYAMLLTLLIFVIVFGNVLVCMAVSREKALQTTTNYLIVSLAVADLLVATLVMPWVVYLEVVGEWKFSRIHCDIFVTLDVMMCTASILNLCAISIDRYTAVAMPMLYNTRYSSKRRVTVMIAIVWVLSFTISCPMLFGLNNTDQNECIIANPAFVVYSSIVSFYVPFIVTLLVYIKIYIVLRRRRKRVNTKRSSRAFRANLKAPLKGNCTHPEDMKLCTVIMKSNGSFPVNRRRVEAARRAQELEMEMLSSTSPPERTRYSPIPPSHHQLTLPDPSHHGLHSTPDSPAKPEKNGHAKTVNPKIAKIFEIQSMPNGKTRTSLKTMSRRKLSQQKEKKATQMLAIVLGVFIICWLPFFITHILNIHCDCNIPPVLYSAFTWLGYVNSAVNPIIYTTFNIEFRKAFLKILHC

Binding | SMILES
104% | CC(C)C[C@H](NC(=O)[C@@H]1CCNC1)C(=O)NCC(N)=O
104% | CC(C)C[C@H](NC(=O)[C@@H]1CNC[C@@H]1Cc1ccccc1)C(=O)NCC(N)=O
109% | CC(C)C[C@H](NC(=O)[C@@H]1CCCN1)C(=O)NCC(N)=O (H-Pro-Leu-Gly-NH2)

Continued, compound first:

SMILES | Binding
CC(C)C[C@H](NC(=O)[C@@H]1CNC[C@H]1Cc1ccccc1)C(=O)NCC(N)=O | 108%
CC(C)C[C@H](NC(=O)[C@H]1CCNC1)C(=O)NCC(N)=O | 107%
CC(C)C[C@H](NC(=O)[C@H]1CNC[C@@H]1Cc1ccccc1)C(=O)NCC(N)=O | 109%
CC(C)C[C@H](NC(=O)[C@H]1CNC[C@H]1Cc1ccccc1)C(=O)NCC(N)=O | 99.6%

From ChEMBL document CHEMBL1130633, “Beta-analogs of PLG (L-prolyl-L-leucyl-glycinamide): ex-chiral pool syntheses and dopamine D2 receptor modulating effects” (Bioorg Med Chem Lett, 1998)
